Results as given in patent US9938301B2, “Dihydropyrimido fused ring derivative as HBV inhibitor” (QILU PHARMACEUTICAL CO., LTD., priority 2014, dated 2018).
Read-outs that look alike come from different tables or passages of the source.

Test system: HBV DNA in HepG2.2.15 cells
Test: HBV in vitro assay quantitive qPCR test
Assay type: cell-based
Conditions: Hepatitis B virus
Description: • 1 Purpose of the test: • The content of HBV DNA in HepG2.2.15 cells was detected by real time quantitive qPCR test to evaluate an inhibitory action of the compound on HBV with an EC50 value of the compound as an indicator. • 2 Experimental materials: • 2.1 Cell lines: HepG2.2.15 Cells • HepG2.2.15 cell culture media (DMEM/F12, Invitrogen-11330057; 10% serum, Invitrogen-10099141; 100 units/ml Penicillin and 10 μg/ml Streptomycin, Invitrogen-15140122; 1% non-essential amino acid, Invitrogen-1140076; 2 mM L-GLUTAMINE, Invitrogen-25030081; 300 μg/ml Geneticin, Invitrogen-10131027 • 2.2 Reagents: • trypsin (Invitrogen-25300062) • DPBS (Hyclone-SH30028.01B) • DMSO (Sigma-D2650-100ML) • High-Throughput DNA Purification Kit (QIAamp 96 DNA Blood Kit, Qiagen-51162) • Quantitative Fast Start Universal Probe Reagent (FastStart Universal Probe Master, Roche-04914058001) • 2.3 Materials and Instruments: • 96-well cell culture plate (Corning-3599) • CO2 Incubator (HERA-CELL-240) • Optical Sealing Membrane (ABI-4311971) • Quantitative PCR 96-well Plate (Applied Biosystems-4306737) • Fluorescent Quantitative PCR Instrument (Applied Biosystems-7500 real time PCR system) • 3. Testing steps and Methods: • 3.1 HepG2.2.15 cells (4×10^4 cells/well) were planted into a 96-well plate, and at 37° C., 5% CO2 cultured overnight. • 3.2 On Day 2, the compounds were diluted in totally 8 concentrations with a dilution gradient of three times. The compounds at different concentrations were added into the culture wells in duplicate. The final concentration of DMSO in the culture media was 1%. 1 μM GLS4 was used as 100% inhibition control; 1% DMSO as 0% inhibition control. • 3.3 On Day 5, replacing with the fresh culture media containing the compound was performed. • 3.4 On Day 8, the culture media in the culture wells was collected, and DNA was extracted with a High-Throughput DNA Purification Kit (Qiagen-51162), See Specification of the product for specific steps. • 3.5 Preparation of PCR Reaction Mixture was shown in Table 1:
• 3.6 To each well of a 96-well PCR plate was added 15 μl reaction mixture, and then to each well was added 10 μl sample DNA or HBV DNA standard. • 3.7 The reaction conditions of PCR were: heating at 95° C. for 10 minutes; then at 95° C. denaturing for 15 seconds, and at 60° C. extending for 1 minute, totally 40 cycles. • 3.8 Data Analysis: • 3.8.1 The inhibition percentage was calculated: % Inh.=[1−(DNA copy number in sample−DNA copy number in 1 μM GLS4)/(DNA copy number in DMSO control−DNA copy number in 1 μM GLS4)]×100. • 3.8.2 Calculating EC50: the concentration of the compound for 50% inhibition of HBV (EC50) was calculated by using GraphPad Prism Software. • 4 Testing Results • The testing results were shown in Table 3: […]

[1] = qPCR assay, HepG2.2.15 cells, read-out: Concentration for 50% inhibition of HBV (EC50)value
[2] = summary list of target compounds, Examples 166-220 (values of Table 3), HepG2.2.15 cells, read-out: BIOACTIVITY (inhibitory actions on HBV DNA, EC50)
[3] = HepG2.2.15, read-out: BIOACTIVITY (inhibitory actions on HBV DNA, EC50)
[4] = HepG2.2.15, read-out: Concentration for 50% inhibition of HBV (EC50)value

Row | SMILES | EC50 [1] [nM] | EC50 [2] [nM] | EC50 [3] [nM] | EC50 [4] [nM]
1 | COC(=O)C1=C2C[C@H](NS(=O)(=O)CCN(C)C)CN2C(c2nccs2)=N[C@H]1c1ccc(F)cc1Cl [Example 166] | < 100 | < 100 | – | –
2 | COC(=O)C1=C2C[C@H](NS(C)(=O)=O)CN2C(c2nccs2)=N[C@H]1c1ccc(F)c(F)c1F [Example 167] | < 100 | < 100 | – | –
3 | COC(=O)C1=C2C[C@H](NS(C)(=O)=O)CN2C(c2nccs2)=N[C@@H]1c1ccc(F)c(F)c1F [Example 168] | 100 to 500 | 100 to 500 | – | –
4 | COC(=O)C1=C2C[C@H](N(C)S(C)(=O)=O)CN2C(c2nccs2)=N[C@H]1c1ccc(F)cc1Cl [Example 169] | < 100 | < 100 | – | –
5 | COC(=O)C1=C2C[C@H](NS(=O)(=O)C(C)(C)C)CN2C(c2nccs2)=N[C@H]1c1ccc(F)cc1Cl [Example 170] | < 100 | < 100 | – | –
6 | COC(=O)C1=C2C[C@H](NS(=O)(=O)CCN)CN2C(c2nccs2)=N[C@H]1c1ccc(F)cc1Cl [Example 171] | < 100 | < 100 | – | –
7 | COC(=O)CS(=O)(=O)N[C@H]1CC2=C(C(=O)OC)[C@H](c3ccc(F)cc3Cl)N=C(c3nccs3)N2C1 [Example 172] | < 100 | < 100 | – | –
8 | COC(=O)C1=C2C[C@H](NC(=O)C3CC3)CN2C(c2nccs2)=N[C@H]1c1ccc(F)cc1Cl [Example 173] | < 100 | < 100 | – | –
9 | CCOP(=O)(N[C@H]1CC2=C(C(=O)OC)[C@H](c3ccc(F)cc3Cl)N=C(c3nccs3)N2C1)OCC [Example 174] | – | – | 100 to 500 | 100 to 500
10 | COC(=O)C1=C2C[C@H](NS(=O)(=O)O)CN2C(c2nccs2)=N[C@H]1c1ccc(F)cc1Cl [Example 175] | 1000 to 5000 | 1000 to 5000 | – | –
11 | CCOC(=O)C1=C2CN(CCO)S(=O)(=O)CN2C(c2nccs2)=N[C@H]1c1ccc(F)cc1Cl [Example 176] | 1000 to 5000 | 1000 to 5000 | – | –
12 | COC(=O)C1=C2C[C@H](NS(C)(=O)=O)CN2C(c2nccs2)=N[C@H]1c1sccc1Cl [Example 177] | – | – | < 100 | < 100
13 | COC(=O)C1=C2C[C@@H](NS(C)(=O)=O)CN2C(c2nccs2)=N[C@@H]1c1ccc(F)cc1Cl [Example 178] | 100 to 500 | 100 to 500 | – | –
14 | COC(=O)C1=C2C[C@H](N(CC(F)F)S(C)(=O)=O)CN2C(c2nccs2)=N[C@H]1c1ccc(F)cc1Cl [Example 179] | 100 to 500 | 100 to 500 | – | –
15 | COC(=O)C1=C2C[C@H](NS(C)(=O)=O)CN2C(c2nccs2)=N[C@H]1c1ccc(F)cc1C [Example 180] | < 100 | < 100 | – | –
16 | COC(=O)C1=C2C[C@@H](NS(C)(=O)=O)CN2C(c2nccs2)=N[C@H]1c1ccc(F)cc1Cl [Example 181] | < 100 | < 100 | – | –
17 | COC(=O)C1=C2C[C@H](N(CC#N)S(C)(=O)=O)CN2C(c2nccs2)=N[C@H]1c1ccc(F)cc1Cl [Example 182] | < 100 | < 100 | – | –
18 | CCN([C@H]1CC2=C(C(=O)OC)[C@H](c3ccc(F)cc3Cl)N=C(c3nccs3)N2C1)S(C)(=O)=O [Example 183] | < 100 | < 100 | – | –
19 | COC(=O)C1=C2C[C@H](N(C(C)C)S(C)(=O)=O)CN2C(c2nccs2)=N[C@H]1c1ccc(F)cc1Cl [Example 184] | 100 to 500 | 100 to 500 | – | –
20 | COC(=O)C1=C2C[C@H](NS(=O)(=O)OC)CN2C(c2nccs2)=N[C@H]1c1ccc(F)cc1Cl [Example 185] | < 100 | < 100 | – | –
21 | COC(=O)C1=C2C[C@H](N(CC(=O)O)S(C)(=O)=O)CN2C(c2nccs2)=N[C@H]1c1ccc(F)cc1Cl [Example 186] | 1000 to 5000 | 1000 to 5000 | – | –
22 | COC(=O)C1=C2C[C@H](N3CCCS3(=O)=O)CN2C(c2nccs2)=N[C@H]1c1ccc(F)cc1Cl [Example 187] | < 100 | < 100 | – | –

Row | SMILES | EC50 [1] [nM] | EC50 [2] [nM] | EC50 [3] [nM] | EC50 [4] [nM]
23 | COC(=O)C1=C2C[C@H](N(CCO)S(C)(=O)=O)CN2C(c2nccs2)=N[C@H]1c1ccc(F)cc1Cl [Example 188] | < 100 | < 100 | – | –
24 | COC(=O)C1=C2C[C@H](NS(=O)(=O)c3ccccc3)CN2C(c2nccs2)=N[C@H]1c1ccc(F)cc1Cl [Example 189] | < 100 | < 100 | – | –
25 | COC(=O)C1=C2C[C@H](NP(=O)(OC)OC)CN2C(c2nccs2)=N[C@H]1c1ccc(F)cc1Cl [Example 190] | – | – | 100 to 500 | 100 to 500
26 | COC(=O)C1=C2C[C@H](NS(C)(=O)=O)CN2C(c2ncc(F)cc2F)=N[C@H]1c1ccc(F)cc1Cl [Example 191] | < 100 | < 100 | – | –
27 | COC(=O)C1=C2C[C@H](N(C)S(N)(=O)=O)CN2C(c2nccs2)=N[C@H]1c1ccc(F)cc1Cl [Example 192] | < 100 | < 100 | – | –
28 | COC(=O)C1=C2C[C@H](NS(N)(=O)=O)CN2C(c2nccs2)=N[C@H]1c1ccc(F)c(F)c1F [Example 193] | < 100 | < 100 | – | –
29 | COC(=O)C1=C2C[C@H](NS(C)(=O)=O)CN2C(c2nccs2)=N[C@H]1c1ccc(F)cn1 [Example 194] | 1000 to 5000 | 1000 to 5000 | – | –
30 | [H]/N=C(\N)N[C@H]1CC2=C(C(=O)OC)[C@H](c3ccc(F)cc3Cl)N=C(c3nccs3)N2C1 [Example 195] | 1000 to 5000 | 1000 to 5000 | – | –
31 | COC(=O)C1=C2C[C@H](N(O)S(C)(=O)=O)CN2C(c2nccs2)=N[C@H]1c1ccc(F)cc1Cl [Example 196] | 1000 to 5000 | 1000 to 5000 | – | –
32 | COC(=O)C1=C2C[C@H](NS(N)(=O)=O)CN2C(c2nccs2)=N[C@@H]1c1ccc(F)c(F)c1Cl [Example 197] | 1000 to 5000 | 1000 to 5000 | – | –
33 | COC(=O)C1=C2C[C@H](NS(N)(=O)=O)CN2C(c2nccs2)=N[C@H]1c1ccc(F)c(F)c1Cl [Example 198] | < 100 | < 100 | – | –
34 | COC(=O)C1=C2C[C@H](NS(=O)(=O)c3cccnc3)CN2C(c2nccs2)=N[C@H]1c1ccc(F)cc1Cl [Example 199] | < 100 | < 100 | – | –
35 | COC(=O)C1=C2C[C@H](NS(=O)(=O)c3ccccn3)CN2C(c2nccs2)=N[C@H]1c1ccc(F)cc1Cl [Example 200] | < 100 | < 100 | – | –
36 | COC(=O)C1=C2C[C@H](NS(C)(=O)=O)CN2C(c2nccs2)=N[C@H]1c1ccc(F)c(F)c1Cl [Example 201] | < 100 | < 100 | – | –
37 | COC(=O)C1=C2C[C@H](NS(C)(=O)=O)CN2C(c2ncc(C)s2)=N[C@H]1c1ccc(F)cc1Cl [Example 202] | 100 to 500 | 100 to 500 | – | –
38 | COC(=O)C1=C2C[C@H](NS(C)(=O)=O)CN2C(c2nccs2)=N[C@H]1c1ccc(F)cc1C(F)(F)F [Example 203] | 100 to 500 | 100 to 500 | – | –
39 | COC(=O)C1=C2C[C@H](NS(=O)(=O)c3ccccc3F)CN2C(c2nccs2)=N[C@H]1c1ccc(F)cc1Cl [Example 204] | < 100 | < 100 | – | –
40 | COC(=O)C1=C2C[C@H](NS(C)(=O)=O)CN2C(c2nccs2)=N[C@H]1c1ccc(F)cc1F [Example 205] | < 100 | < 100 | – | –
41 | CNS(=O)(=O)N[C@H]1CC2=C(C(=O)OC)[C@H](c3ccc(F)c(F)c3F)N=C(c3nccs3)N2C1 [Example 206] | < 100 | < 100 | – | –
42 | COC(=O)C1=C2C[C@H](NS(=O)(=O)N(C)C)CN2C(c2nccs2)=N[C@H]1c1ccc(F)c(F)c1F [Example 207] | < 100 | < 100 | – | –
43 | COC(=O)C1=C2C[C@H](NS(=O)(=O)N3CCCC3)CN2C(c2nccs2)=N[C@H]1c1ccc(F)c(F)c1F [Example 208] | < 100 | < 100 | – | –
44 | COC(=O)C1=C2C[C@H](NS(=O)(=O)NC(C)C)CN2C(c2nccs2)=N[C@H]1c1ccc(F)c(F)c1F [Example 209] | < 100 | < 100 | – | –
